Consider one compound from ChEMBL document CHEMBL4765455, “Design, synthesis, and biological evaluations of novel 3-amino-4-ethynyl indazole derivatives as Bcr-Abl kinase inhibitors with potent cellular antileukemic activity” (Eur J Med Chem, 2020).

Bounds are passed on as bounds.

For one data set, the species on record is Homo sapiens. Put plainly: Selectivity index, ratio of IC50 for c-Src (unknown origin) to IC50 for Bcr-Abl (unknown origin).
In data set [1] the target is Insulin-like growth factor 1 receptor (Homo sapiens) (UniProt P08069). As to the kind of experiment: Inhibition of IGF1R (unknown origin) at 1 uM relative to control.
A further data set deals with SR. As to the kind of experiment: Antiproliferative activity against human SR cells assessed as cell growth inhibition measured after 48 hrs by SRB assay. The format is functional.
For a further data set, the target named is Bcr/Abl fusion protein (Homo sapiens, UniProt P00519, T315I). As to the kind of experiment: Inhibition of BCR-ABL T315I mutant (unknown origin) incubated for 40 mins in presence of [gamma33P]ATP by scintillation method. The class given is protein assay.
The target of data set [2] is Hepatocyte growth factor receptor (Homo sapiens) (UniProt P08581). Put plainly: Inhibition of c-MET (unknown origin) at 1 uM relative to control.
Hepatocyte growth factor receptor (Homo sapiens), sequence (P08581 whole entry): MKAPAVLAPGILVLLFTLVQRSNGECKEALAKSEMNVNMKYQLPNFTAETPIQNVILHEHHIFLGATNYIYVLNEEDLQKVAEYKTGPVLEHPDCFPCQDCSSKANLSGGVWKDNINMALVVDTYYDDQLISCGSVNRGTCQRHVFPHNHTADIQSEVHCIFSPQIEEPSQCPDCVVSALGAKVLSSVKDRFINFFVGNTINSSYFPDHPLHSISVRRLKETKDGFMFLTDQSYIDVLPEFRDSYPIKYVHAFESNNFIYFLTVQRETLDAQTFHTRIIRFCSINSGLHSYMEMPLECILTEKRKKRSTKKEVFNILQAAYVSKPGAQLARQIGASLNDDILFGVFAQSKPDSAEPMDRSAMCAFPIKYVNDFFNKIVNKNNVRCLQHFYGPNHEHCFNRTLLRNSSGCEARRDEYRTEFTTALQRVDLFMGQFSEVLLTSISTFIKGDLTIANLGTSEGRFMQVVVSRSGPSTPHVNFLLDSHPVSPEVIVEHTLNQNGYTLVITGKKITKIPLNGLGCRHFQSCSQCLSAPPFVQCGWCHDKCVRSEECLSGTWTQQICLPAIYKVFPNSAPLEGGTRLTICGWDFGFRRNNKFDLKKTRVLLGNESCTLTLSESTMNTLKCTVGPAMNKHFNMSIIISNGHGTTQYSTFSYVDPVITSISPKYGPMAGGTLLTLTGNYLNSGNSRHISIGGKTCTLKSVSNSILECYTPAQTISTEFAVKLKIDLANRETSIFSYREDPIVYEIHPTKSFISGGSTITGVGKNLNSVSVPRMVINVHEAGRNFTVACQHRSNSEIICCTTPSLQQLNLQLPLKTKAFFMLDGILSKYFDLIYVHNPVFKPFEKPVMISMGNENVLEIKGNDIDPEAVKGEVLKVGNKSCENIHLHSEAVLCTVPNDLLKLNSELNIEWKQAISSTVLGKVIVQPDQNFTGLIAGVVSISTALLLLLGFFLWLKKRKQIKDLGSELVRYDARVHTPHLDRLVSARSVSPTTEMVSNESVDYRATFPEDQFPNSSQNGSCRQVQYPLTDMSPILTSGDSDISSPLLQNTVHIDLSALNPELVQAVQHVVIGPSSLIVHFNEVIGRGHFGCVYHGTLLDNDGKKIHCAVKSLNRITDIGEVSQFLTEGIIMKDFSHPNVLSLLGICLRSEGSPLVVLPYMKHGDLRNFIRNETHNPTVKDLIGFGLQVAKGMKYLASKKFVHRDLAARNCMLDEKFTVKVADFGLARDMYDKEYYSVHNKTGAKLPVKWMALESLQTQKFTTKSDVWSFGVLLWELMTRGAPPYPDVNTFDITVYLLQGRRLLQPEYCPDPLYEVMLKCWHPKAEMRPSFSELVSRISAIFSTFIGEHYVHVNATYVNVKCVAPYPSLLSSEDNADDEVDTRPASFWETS
Data set [3] addresses Dual specificity mitogen-activated protein kinase kinase 1 (Homo sapiens) (UniProt Q02750). As to the kind of experiment: Inhibition of MEK1 (unknown origin) at 1 uM relative to control.
Another data set concerns HL-60(TB). As to the kind of experiment: Antiproliferative activity against human HL-60(TB) cells assessed as cell growth inhibition at 10 uM measured after 48 hrs by SRB assay relative to control. The settings on record: read-out: GI. The format is functional. A general note: The SRB assay estimates cell density from bound dye.
For data set [4], the target named is Rho-associated protein kinase 1 (Homo sapiens) (UniProt Q13464). As to the kind of experiment: Inhibition of ROCK1 (unknown origin) at 1 uM relative to control.
The nature of data set [5]: Half life in ICR mouse at 10 mg/kg, po measured up to 8 hrs by LC-MS/MS analysis. To be noted: in vivo. The class given is ADME, organism-based.
Data set [6] is described as follows: Clearance in ICR mouse at 5 mg/kg, iv measured up to 8 hrs by LC-MS/MS analysis. To be noted: in vivo. The class given is ADME, organism-based.
Another data set concerns CCRF-CEM. As to the kind of experiment: Antiproliferative activity against human CCRF-CEM cells assessed as cell growth inhibition at 10 uM measured after 48 hrs by SRB assay relative to control. The class given is functional. To be noted: read-out: GI.
For data set [7], the target named is Death-associated protein kinase 1 (Homo sapiens) (UniProt P53355). As to the kind of experiment: Inhibition of DAPK1 (unknown origin) at 1 uM relative to control.
Death-associated protein kinase 1 (Homo sapiens), sequence (P53355 whole entry, looked up): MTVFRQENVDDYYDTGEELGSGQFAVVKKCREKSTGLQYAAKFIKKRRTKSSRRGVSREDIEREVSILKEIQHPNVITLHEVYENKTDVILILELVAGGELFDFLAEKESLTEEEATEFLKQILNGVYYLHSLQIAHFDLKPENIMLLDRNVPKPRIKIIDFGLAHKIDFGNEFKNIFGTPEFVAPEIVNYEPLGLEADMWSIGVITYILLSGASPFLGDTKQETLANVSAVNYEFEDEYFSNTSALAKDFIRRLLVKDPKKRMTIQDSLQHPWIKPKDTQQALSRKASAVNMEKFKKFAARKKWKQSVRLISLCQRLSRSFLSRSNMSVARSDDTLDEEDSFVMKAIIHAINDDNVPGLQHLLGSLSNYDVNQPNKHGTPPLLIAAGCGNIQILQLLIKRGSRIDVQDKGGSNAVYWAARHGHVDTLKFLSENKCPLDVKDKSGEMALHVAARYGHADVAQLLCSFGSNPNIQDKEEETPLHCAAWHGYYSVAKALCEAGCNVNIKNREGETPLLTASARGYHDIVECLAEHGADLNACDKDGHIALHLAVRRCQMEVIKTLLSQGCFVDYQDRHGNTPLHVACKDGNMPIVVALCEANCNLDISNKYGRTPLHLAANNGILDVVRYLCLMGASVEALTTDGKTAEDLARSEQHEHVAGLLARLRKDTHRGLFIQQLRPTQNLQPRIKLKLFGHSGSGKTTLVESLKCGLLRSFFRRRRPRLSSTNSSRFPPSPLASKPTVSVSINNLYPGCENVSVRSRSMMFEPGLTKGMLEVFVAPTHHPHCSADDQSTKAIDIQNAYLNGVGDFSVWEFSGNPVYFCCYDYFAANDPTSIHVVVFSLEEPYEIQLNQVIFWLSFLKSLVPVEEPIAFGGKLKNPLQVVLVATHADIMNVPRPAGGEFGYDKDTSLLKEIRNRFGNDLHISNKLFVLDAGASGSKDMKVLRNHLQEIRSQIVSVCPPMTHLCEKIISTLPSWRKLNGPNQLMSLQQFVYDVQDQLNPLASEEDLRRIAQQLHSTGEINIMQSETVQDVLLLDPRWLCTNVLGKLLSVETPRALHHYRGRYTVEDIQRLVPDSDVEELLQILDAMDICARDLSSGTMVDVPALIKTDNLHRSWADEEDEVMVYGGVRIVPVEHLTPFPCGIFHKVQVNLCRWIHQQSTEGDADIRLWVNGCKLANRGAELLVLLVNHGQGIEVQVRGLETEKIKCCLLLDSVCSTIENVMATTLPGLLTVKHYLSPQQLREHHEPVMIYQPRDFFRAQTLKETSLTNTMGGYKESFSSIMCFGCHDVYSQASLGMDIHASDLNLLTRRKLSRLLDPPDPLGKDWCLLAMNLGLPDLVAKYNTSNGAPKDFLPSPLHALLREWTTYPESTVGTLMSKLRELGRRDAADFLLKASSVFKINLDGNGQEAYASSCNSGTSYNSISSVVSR
Data set [8] concerns the target Receptor-type tyrosine-protein kinase FLT3 (Homo sapiens, UniProt P36888). As to the kind of experiment: Inhibition of FLT3 (unknown origin) in presence of ATP.
Data set [9] concerns the target Proto-oncogene tyrosine-protein kinase Src (Homo sapiens, UniProt P12931). As to the kind of experiment: Inhibition of c-Src (unknown origin) in presence of ATP.
Data set [10] has as its target Tyrosine-protein kinase SYK (Homo sapiens) (UniProt P43405). Put plainly: Inhibition of SYK (unknown origin) at 1 uM relative to control.
The next data set deals with RPMI-8226. Put plainly: Antiproliferative activity against human RPMI-8226 cells assessed as cell growth inhibition measured after 48 hrs by SRB assay. The format is functional.
Data set [11] can be described thus: Antiproliferative activity against human L132 cells assessed as cell growth inhibition incubated for 72 hrs by MTT assay. The format is cell-based. In general terms: Tetrazolium assays rely on reduction of a dye to a coloured formazan, in cell work by metabolically active cells.

Proto-oncogene tyrosine-protein kinase Src, sequence (P12931 2-536 limits assumed): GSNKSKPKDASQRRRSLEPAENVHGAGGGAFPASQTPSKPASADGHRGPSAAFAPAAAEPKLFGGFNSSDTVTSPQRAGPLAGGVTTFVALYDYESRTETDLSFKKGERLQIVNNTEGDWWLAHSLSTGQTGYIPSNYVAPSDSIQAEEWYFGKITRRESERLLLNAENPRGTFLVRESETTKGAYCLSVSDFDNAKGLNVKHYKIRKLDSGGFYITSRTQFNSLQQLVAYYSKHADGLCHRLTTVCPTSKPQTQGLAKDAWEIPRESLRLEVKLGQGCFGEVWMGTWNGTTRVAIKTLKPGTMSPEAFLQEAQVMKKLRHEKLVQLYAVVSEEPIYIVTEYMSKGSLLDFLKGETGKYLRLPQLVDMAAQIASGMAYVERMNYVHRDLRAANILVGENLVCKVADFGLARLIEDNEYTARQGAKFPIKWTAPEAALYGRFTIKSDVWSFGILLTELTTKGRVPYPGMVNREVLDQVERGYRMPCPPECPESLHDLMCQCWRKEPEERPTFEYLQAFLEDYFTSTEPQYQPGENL
Receptor-type tyrosine-protein kinase FLT3, sequence (P36888 whole entry): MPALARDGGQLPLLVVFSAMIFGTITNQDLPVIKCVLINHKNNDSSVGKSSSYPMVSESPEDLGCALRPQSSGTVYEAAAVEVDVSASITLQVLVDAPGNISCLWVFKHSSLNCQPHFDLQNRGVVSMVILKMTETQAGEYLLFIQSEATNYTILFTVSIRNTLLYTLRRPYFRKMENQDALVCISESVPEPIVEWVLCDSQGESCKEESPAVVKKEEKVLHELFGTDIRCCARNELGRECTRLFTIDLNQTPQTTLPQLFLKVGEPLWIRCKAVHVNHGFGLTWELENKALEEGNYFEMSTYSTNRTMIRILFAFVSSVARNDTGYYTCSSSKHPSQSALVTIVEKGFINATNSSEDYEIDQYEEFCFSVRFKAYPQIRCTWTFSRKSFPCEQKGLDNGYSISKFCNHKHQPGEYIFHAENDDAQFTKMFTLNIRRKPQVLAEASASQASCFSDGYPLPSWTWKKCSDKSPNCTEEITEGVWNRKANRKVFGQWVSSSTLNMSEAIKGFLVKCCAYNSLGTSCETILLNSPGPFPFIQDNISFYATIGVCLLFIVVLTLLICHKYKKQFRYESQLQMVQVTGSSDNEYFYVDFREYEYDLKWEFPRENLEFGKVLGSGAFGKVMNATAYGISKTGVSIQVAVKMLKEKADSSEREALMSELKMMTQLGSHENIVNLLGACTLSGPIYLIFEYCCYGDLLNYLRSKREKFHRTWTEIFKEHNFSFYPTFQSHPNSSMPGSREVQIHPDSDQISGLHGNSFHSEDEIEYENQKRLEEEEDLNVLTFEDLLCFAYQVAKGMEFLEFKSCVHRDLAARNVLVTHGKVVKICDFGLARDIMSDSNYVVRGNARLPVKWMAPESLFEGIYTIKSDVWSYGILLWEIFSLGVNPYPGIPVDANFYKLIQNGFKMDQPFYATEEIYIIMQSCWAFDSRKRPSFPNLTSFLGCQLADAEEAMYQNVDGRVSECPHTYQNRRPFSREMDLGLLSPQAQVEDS
Dual specificity mitogen-activated protein kinase kinase 1 (Homo sapiens), sequence (Q02750 whole entry): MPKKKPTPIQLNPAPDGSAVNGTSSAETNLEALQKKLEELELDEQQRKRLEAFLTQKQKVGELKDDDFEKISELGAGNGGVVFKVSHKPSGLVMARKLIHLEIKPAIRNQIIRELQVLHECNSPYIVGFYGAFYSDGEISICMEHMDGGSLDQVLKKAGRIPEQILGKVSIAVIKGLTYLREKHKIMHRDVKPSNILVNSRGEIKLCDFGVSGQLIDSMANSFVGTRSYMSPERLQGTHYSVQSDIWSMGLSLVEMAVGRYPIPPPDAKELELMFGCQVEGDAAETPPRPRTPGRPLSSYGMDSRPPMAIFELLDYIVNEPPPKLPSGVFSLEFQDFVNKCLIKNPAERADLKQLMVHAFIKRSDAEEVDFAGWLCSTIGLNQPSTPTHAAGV

For the compound `Nc1n[nH]c2cccc(C#Cc3cccc(NC(=O)c4ccc(N5CCOCC5)c(C(F)(F)F)c4)c3)c12`, in the data set listed under Homo sapiens, the Ratio IC50 was found to be 14.3. Further, the inhibition was under 30% in [1]; 43.4% in [2]; under 30% in [3]; under 30% in data set [4]; under 30% in data set [7]; under 30% in [10]. Further, the GI50 with SR turned out to be 2.4 µM; in the data set with RPMI-8226, 1.98 µM. Also, the results for the IC50 (on Bcr/Abl fusion protein; in data set [8]; in data set [9]) were 0.227 µM, 0.535 µM and 0.066 µM, respectively. The inhibition of growth at 10 µM is 98% in the data set with HL-60(TB) and 89.5% with CCRF-CEM. In [5], the half-life was 42 min. Further, the clearance in [6] came to 5 mL/min/kg. Also, in data set [11], the GI50 at 72 h worked out at 9.27 µM.

As usually defined, the inhibition is how much of the control response was suppressed. A higher inhibition goes with a strong effect. What is called GI50 is the concentration that inhibits growth by half. As usually defined, the IC50 is the midpoint of a concentration-inhibition curve. The half-life is how long it takes for the measured level to halve. Read a low half-life as fast loss. Broadly, the clearance is the volume of plasma or blood freed of the substance per unit of time. Low values mean inefficient removal, high ones efficient removal.
